According to patent US20050197350A1, “Novel quinoline, tetrahydroquinazoline, and pyrimidine derivatives and methods of treatment related to the use thereof” (TAISHO PHARMACEUTICAL CO., LTD., priority 2003, published 2005):

These molecules were tested on MCH receptors (assay: MCH receptor activity class (method not given)). Details: class by percent of control at 10^−7 M or IC50.

Row | SMILES | class
1 | Cc1cc(C(=O)N[C@H]2CC[C@@H](Nc3ncc(C)c(N(C)C)n3)CC2)ccc1F [compound 2923, N-(cis-4-{[4-(dimethylamino)-5-methylpyrimidin-2-yl]amino}cyclohexyl)-4-fluoro-3-methylbenzamide] | 1 (Class 1: The value of percent of control at 10^−7 M was less than 40% or the value of IC50 was less than 50 nM.)
2 | Cc1ccc(C(=O)N[C@H]2CC[C@@H](Nc3ncc(C)c(N(C)C)n3)CC2)cc1F [compound 2924, N-(cis-4-{[4-(dimethylamino)-5-methylpyrimidin-2-yl]amino}cyclohexyl)-3-fluoro-4-methylbenzamide] | 1 (Class 1: The value of percent of control at 10^−7 M was less than 40% or the value of IC50 was less than 50 nM.)
3 | CCc1cccc(C(=O)N[C@H]2CC[C@@H](Nc3ncc(C)c(N(C)C)n3)CC2)c1 [compound 2925, N-(cis-4-{[4-(dimethylamino)-5-methylpyrimidin-2-yl]amino}cyclohexyl)-3-ethylbenzamide] | 1 (Class 1: The value of percent of control at 10^−7 M was less than 40% or the value of IC50 was less than 50 nM.)
4 | Cc1cnc(N[C@H]2CC[C@@H](NC(=O)c3ccc4c(c3)OC(F)(F)O4)CC2)nc1N(C)C [compound 2926, N-(cis-4-{[4-(dimethylamino)-5-methylpyrimidin-2-yl]amino}cyclohexyl)-2,2-difluoro-1,3-benzodioxole-5-carboxamide] | 1 (Class 1: The value of percent of control at 10^−7 M was less than 40% or the value of IC50 was less than 50 nM.)
5 | CCOc1cccc(C(=O)N[C@H]2CC[C@@H](Nc3ncc(C)c(N(C)C)n3)CC2)c1 [compound 2927, N-(cis-4-{[4-(dimethylamino)-5-methylpyrimidin-2-yl]amino}cyclohexyl)-3-ethoxybenzamide] | 2 (Class 2: The value of percent of control at 10^−7 M was from 40% to 60% or the value of IC′50 was from 50 nM to 200 nM.)
6 | Cc1cnc(N[C@H]2CC[C@@H](NC(=O)c3cccc(OC(C)C)c3)CC2)nc1N(C)C [compound 2928, N-(cis-4-{[4-(dimethylamino)-5-methylpyrimidin-2-yl]amino}cyclohexyl)-3-isopropoxybenzamide] | 2 (Class 2: The value of percent of control at 10^−7 M was from 40% to 60% or the value of IC′50 was from 50 nM to 200 nM.)
7 | CCOc1cc(OCC)cc(C(=O)N[C@H]2CC[C@@H](Nc3ncc(C)c(N(C)C)n3)CC2)c1 [compound 2929, N-(cis-4-{[4-(dimethylamino)-5-methylpyrimidin-2-yl]amino}cyclohexyl)-3,5-diethoxybenzamide] | 1 (Class 1: The value of percent of control at 10^−7 M was less than 40% or the value of IC50 was less than 50 nM.)
8 | Cc1cnc(N[C@H]2CC[C@@H](NC(=O)c3cc(F)cc(C(F)(F)F)c3)CC2)nc1N(C)C [compound 2930, N-(cis-4-{[4-(dimethylamino)-5-methylpyrimidin-2-yl]amino}cyclohexyl)-3-fluoro-5-(trifluoromethyl)benzamide] | 1 (Class 1: The value of percent of control at 10^−7 M was less than 40% or the value of IC50 was less than 50 nM.)
9 | Cc1cnc(N[C@H]2CC[C@@H](NC(=O)c3ccc(C(F)(F)F)c(F)c3)CC2)nc1N(C)C [compound 2931] | 3 (Class 3 The value of percent of control at 10^−7 M was more than 60% or the value of IC50 was more than 200 nM.)
10 | Cc1cnc(N[C@H]2CC[C@@H](NC(=O)c3ccc(F)c(Cl)c3)CC2)nc1N(C)C [compound 2932] | 3 (Class 3 The value of percent of control at 10^−7 M was more than 60% or the value of IC50 was more than 200 nM.)
11 | Cc1cnc(N[C@H]2CC[C@@H](NC(=O)c3cc(Br)cc(Br)c3)CC2)nc1N(C)C [compound 2933] | 1 (Class 1: The value of percent of control at 10^−7 M was less than 40% or the value of IC50 was less than 50 nM.)
12 | Cc1cc(C)cc(C(=O)N[C@H]2CC[C@@H](Nc3ncc(C)c(N(C)C)n3)CC2)c1 [compound 2934] | 1 (Class 1: The value of percent of control at 10^−7 M was less than 40% or the value of IC50 was less than 50 nM.)
13 | Cc1cc(C(=O)N[C@H]2CC[C@@H](Nc3ncc(C)c(N(C)C)n3)CC2)ccc1Cl [compound 2935] | 1 (Class 1: The value of percent of control at 10^−7 M was less than 40% or the value of IC50 was less than 50 nM.)
14 | COc1ccc(C(=O)N[C@H]2CC[C@@H](Nc3ncc(C)c(N(C)C)n3)CC2)cc1C(F)(F)F [compound 2936, N-(cis-4-{[4-(dimethylamino)-5-methylpyrimidin-2-yl]amino}cyclohexyl)-4-methoxy-3-(trifluoromethyl)benzamide] | 1 (Class 1: The value of percent of control at 10^−7 M was less than 40% or the value of IC50 was less than 50 nM.)
15 | Cc1cccc(C(=O)N[C@H]2CC[C@@H](Nc3ncc(C)c(N(C)C)n3)CC2)c1 [compound 2937, N-(cis-4-{[4-(dimethylamino)-5-methylpyrimidin-2-yl]amino}cyclohexyl)-3-methylbenzamide] | 1 (Class 1: The value of percent of control at 10^−7 M was less than 40% or the value of IC50 was less than 50 nM.)
16 | COc1cccc(C(=O)N[C@H]2CC[C@@H](Nc3ncc(C)c(N(C)C)n3)CC2)c1 [compound 2938, N-(cis-4-{[4-(dimethylamino)-5-methylpyrimidin-2-yl]amino}cyclohexyl)-3-methoxybenzamide] | 1 (Class 1: The value of percent of control at 10^−7 M was less than 40% or the value of IC50 was less than 50 nM.)

Row | SMILES | class
17 | Cc1ccc(C(=O)N[C@H]2CC[C@@H](Nc3ncc(C)c(N(C)C)n3)CC2)cc1 [compound 2939, N-(cis-4-{[4-(dimethylamino)-5-methylpyrimidin-2-yl]amino}cyclohexyl)-4-methylbenzamide] | 1 (Class 1: The value of percent of control at 10^−7 M was less than 40% or the value of IC50 was less than 50 nM.)
18 | Cc1cnc(N[C@H]2CC[C@@H](NC(=O)c3cccc(Cl)c3)CC2)nc1N(C)C [compound 2940, 3-chloro-N-(cis-4-{[4-(dimethylamino)-5-methylpyrimidin-2-yl]amino}cyclohexyl)benzamide] | 1 (Class 1: The value of percent of control at 10^−7 M was less than 40% or the value of IC50 was less than 50 nM.)
19 | Cc1cnc(N[C@H]2CC[C@@H](NC(=O)CN(C)c3cccc(Cl)c3)CC2)nc1N(C)C [compound 2941] | 1 (Class 1: The value of percent of control at 10^−7 M was less than 40% or the value of IC50 was less than 50 nM.)
20 | Cc1cccc(N(C)CC(=O)N[C@H]2CC[C@@H](Nc3ncc(C)c(N(C)C)n3)CC2)c1 [compound 2942] | 1 (Class 1: The value of percent of control at 10^−7 M was less than 40% or the value of IC50 was less than 50 nM.)
21 | Cc1cnc(N[C@H]2CC[C@@H](NC(=O)CN(C)c3cccc(F)c3)CC2)nc1N(C)C [compound 2943] | 1 (Class 1: The value of percent of control at 10^−7 M was less than 40% or the value of IC50 was less than 50 nM.)
22 | Cc1cnc(N[C@H]2CC[C@@H](NC(=O)CN(C)c3ccc(F)cc3)CC2)nc1N(C)C [compound 2944] | 1 (Class 1: The value of percent of control at 10^−7 M was less than 40% or the value of IC50 was less than 50 nM.)
23 | Cc1cnc(N[C@H]2CC[C@@H](NC(=O)CN(C)c3ccc(Cl)cc3)CC2)nc1N(C)C [compound 2945] | 1 (Class 1: The value of percent of control at 10^−7 M was less than 40% or the value of IC50 was less than 50 nM.)
24 | Cc1cnc(N[C@H]2CC[C@@H](NC(=O)CN(C)c3ccc(F)c(F)c3)CC2)nc1N(C)C [compound 2946] | 1 (Class 1: The value of percent of control at 10^−7 M was less than 40% or the value of IC50 was less than 50 nM.)
25 | COc1cccc(N(C)CC(=O)N[C@H]2CC[C@@H](Nc3ncc(C)c(N(C)C)n3)CC2)c1 [compound 2947] | 1 (Class 1: The value of percent of control at 10^−7 M was less than 40% or the value of IC50 was less than 50 nM.)
26 | COc1ccc(N(C)CC(=O)N[C@H]2CC[C@@H](Nc3ncc(C)c(N(C)C)n3)CC2)cc1 [compound 2948] | 2 (Class 2: The value of percent of control at 10^−7 M was from 40% to 60% or the value of IC′50 was from 50 nM to 200 nM.)
27 | Cc1cc(N(C)C)nc(N[C@H]2CC[C@@H](NC(=O)C(C)(C)c3ccc(Cl)cc3)CC2)n1 [compound 2949, 2-(4-chlorophenyl)-N-(cis-4-{[4-(dimethylamino)-6-methylpyrimidin-2-yl]amino}cyclohexyl)-2-methylpropanamide] | 1 (Class 1: The value of percent of control at 10^−7 M was less than 40% or the value of IC50 was less than 50 nM.)
28 | Cc1cc(N(C)C)nc(N[C@H]2CC[C@@H](NC(=O)Cc3cc(C(F)(F)F)cc(C(F)(F)F)c3)CC2)n1 [compound 2950, 2-[3,5-bis(trifluoromethyl)phenyl]-N-(cis-4-{[4-(dimethylamino)-6-methylpyrimidin-2-yl]amino}cyclohexyl)acetamide] | 2 (Class 2: The value of percent of control at 10^−7 M was from 40% to 60% or the value of IC′50 was from 50 nM to 200 nM.)
29 | Cc1cc(N(C)C)nc(N[C@H]2CC[C@@H](NC(=O)c3ccccc3)CC2)n1 [compound 2951, N-(cis-4-{[4-(dimethylamino)-6-methylpyrimidin-2-yl]amino}cyclohexyl)benzamide] | 3 (Class 3 The value of percent of control at 10^−7 M was more than 60% or the value of IC50 was more than 200 nM.)
30 | CCCCc1ccc(C(=O)N[C@H]2CC[C@@H](Nc3nc(C)cc(N(C)C)n3)CC2)cc1 [compound 2952] | 3 (Class 3 The value of percent of control at 10^−7 M was more than 60% or the value of IC50 was more than 200 nM.)
31 | Cc1cc(N(C)C)nc(N[C@H]2CC[C@@H](NC(=O)c3cccc(F)c3)CC2)n1 [compound 2953, N-(cis-4-{[4-(dimethylamino)-6-methylpyrimidin-2-yl]amino}cyclohexyl)-3-fluorobenzamide] | 2 (Class 2: The value of percent of control at 10^−7 M was from 40% to 60% or the value of IC′50 was from 50 nM to 200 nM.)
32 | Cc1cc(N(C)C)nc(N[C@H]2CC[C@@H](NC(=O)c3cccc(C(F)(F)F)c3)CC2)n1 [compound 2954, N-(cis-4-{[4-(dimethylamino)-6-methylpyrimidin-2-yl]amino}cyclohexyl)-3-(trifluoromethyl)benzamide] | 1 (Class 1: The value of percent of control at 10^−7 M was less than 40% or the value of IC50 was less than 50 nM.)
